Patent US9586963B2 (GENFIT, priority 2011, dated 2017)

Key:
Rev-Erb alpha [1] = molecular target: T1, Rev-Erb alpha (Homo sapiens, UniProt P20393); experiment: M2H (mammalian two-hybrid) cellular activation assay of Rev-Erb alpha; assay type: cell-based; conditions: M2H assay, HEK293 cells, Gal4-Rev-Erb alpha / VP16-NCoR, luciferase reporter
T1 sequence (P20393 284-614 limits assumed): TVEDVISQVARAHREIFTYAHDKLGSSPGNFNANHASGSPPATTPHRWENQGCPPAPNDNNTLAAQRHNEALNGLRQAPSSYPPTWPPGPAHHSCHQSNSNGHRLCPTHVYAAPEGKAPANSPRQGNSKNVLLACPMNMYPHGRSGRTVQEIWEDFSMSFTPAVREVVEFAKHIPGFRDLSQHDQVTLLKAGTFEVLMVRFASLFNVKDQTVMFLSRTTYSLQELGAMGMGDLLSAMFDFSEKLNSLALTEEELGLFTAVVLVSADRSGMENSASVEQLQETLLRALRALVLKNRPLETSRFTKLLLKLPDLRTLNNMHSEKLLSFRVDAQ
Summary of the method: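 Six-point dose-response, 18 h, 37 °C, serum-free, in HEK293 cells carrying a Gal4-RE luciferase reporter with Gal4-Rev-Erb alpha or beta plus VP16-NCoR (corepressor interaction readout). EC50 and TOP activation (%) derived from luminescence across four experiments.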

Rev-Erb alpha [2] = molecular target: T1, Rev-Erb alpha; experiment: TR-FRET (HTRF) assay of Rev-Erb alpha LBD with NCoR peptide ID1; assay type: biochemical; conditions: cell-free, Rev-Erb alpha LBD His 20 nM, NCoR ID1 30 nM
Experimental: Recombinant histidine-tagged Rev-Erb alpha ligand binding domain (LBD; SEQ ID NO: 1) and NCoR peptide ID1 (SEQ ID NO: 2) were tagged with fluorophores. Histidine-tagged Rev-Erb alpha LBD protein was set up in a one to one ratio of 20 nM of His D2 (Cis Bio International 61HSDLB). The NCoR peptide (ID1) was prepared in-house. We used a concentration of 30 nM NCoR and 10 nM Terbium-labeled streptavidin (Cis Bio International 610SATLB).
The buffer for this assay comprised PBS pH 7.2, NaH2P04 at 4 g/L, Na2HP04 at 27 g/L and NaCl at 9 g/l in deionized water. Before using the buffer in the assay, a mixture comprising 1 mM of DTT, 2 mM of CHAPS, 1 mM of EDTA and 0.1% BSA fatty acid free was added to the appropriate amount of buffer. The protein mixture comprising recombinant Rev-Erb alpha LBD His (20 nM), the NCoR ID1 (30 nM) and their respective fluorophores were added to each well of a 384-well plate in a volume 18 μl. The compounds to analyze were diluted in PBS 10% DMSO and was added in a volume of 2 μL in a well. The final mixture volume was 20 μL and the mixture was allowed equilibrate for 2 hours at room temperature. Fluorescence intensity was then counted on the TECAN Genios Pro as a ratio of the fluorescence measured at 665 nm and that measured at 620 nm obtained in the absence of the compound (buffer only) or with the compound. Four experiments were carried out for each compound.
Each compound has been tested at 6 different concentrations to depict a dose-effect enabling the measure of biochemical parameters such as EC50 and TOP activation (%).
The Homogenous Time Resolved Fluorescence (HTRF) assay allows studying the ability of compounds according to the invention to activate Rev-Erb alpha and thus modulate the interaction with its corepressor. The molecular interactions between these bio-molecules are assessed in a cell-free assay by coupling each partner with a fluorescent label and detecting the level of energy transfer. This energy transfer occurs when the distance between the donor (SA Terbium complex) and the acceptor (D2) is small enough.
The ability of compounds according to the invention of activating Rev-Erb alpha was assessed in the described acellular assay. EC50 and TOP activation were measured.

Rev-Erb beta = molecular target: T2, Rev-Erb beta (Homo sapiens, UniProt Q14995); experiment: M2H (mammalian two-hybrid) cellular activation assay of Rev-Erb beta; assay type: cell-based; conditions: HEK293 cells, Gal4-Rev-Erb beta / VP16-NCoR, luciferase reporter
T2 sequence (Q14995 369-579 limits assumed): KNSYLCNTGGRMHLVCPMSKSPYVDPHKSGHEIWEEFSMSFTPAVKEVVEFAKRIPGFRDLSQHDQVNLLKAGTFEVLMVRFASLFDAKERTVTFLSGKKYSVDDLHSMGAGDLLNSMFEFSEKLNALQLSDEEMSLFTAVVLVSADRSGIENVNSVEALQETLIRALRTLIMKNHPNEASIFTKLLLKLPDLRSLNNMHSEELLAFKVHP
Experimental: In this system, Rev-Erb alpha or Rev-Erb beta is expressed as a fusion to the Gal4 DNA-binding domain and the cofactor NCoR is expressed as a fusion to the activation domain of the Herpes Simplex Virus tegument protein VP16. These fusion proteins were included in plasmids at a concentration of 1 μg/μL. The pBS-SK+ vector was added to the preparation to adjust the DNA quantity to a fixed value for each condition.
The transfection mix (Jet-PEI protocol, Polyplus transfection) comprised: • 3 mL of Jet PEI Mix (180 μL Jet-Pei and NaCl at 150 mM) and • 3 mL of the DNA Mix or of the DNA Mix control (wherein the Gal4-Rev-Erb alpha plasmid was replaced by a pGal4phi plasmid).
DNA Mix comprised 1.2 mL of DNA and 1.8 mL of NaCl at 150 mM with, in a T225 flask: • 90 ng of Gal4-Rev-Erb alpha, or 90 ng of Gal4-Rev-Erb beta, • 4500 ng of VP16-NCoR, • 27000 ng of Gal4-RE and • 13410 ng of pBS-SK+. Cells
HEK293 cells were cultured in DMEM (Invitrogen 41965) comprising 10% FBS, P/S, 1% glutamine, 1% pyruvate (Invitrogen 11360) and 1% amino acids (Invitrogen 11140). Cells were then batch co-transfected with plasmid vectors (described in the table above) using as Jet-PEI as reagent (Polyplus) following the protocol specified below.
The 6 mL-transfection mix was transferred in a T225 flask. HEK293 cells were then added at a concentration of 12 Millions of cells for 54 mL of medium (DMEM comprising 10% FBS and 1% P/S). Cells incubated over-night at 37° C. and under 5% CO2.
This cell-based assay is performed using 384-well Greiner white plates (Reference 781080). After the incubation, cells were rinsed with PBS, trypsinized, centrifuged and resuspended in free-serum DMEM without phenol red (Invitrogen 31053). Cells were counted and adjusted to 0.5 Million per mL and plated at a concentration of 10,000 cells in 20 μL per well. They were incubated a minimum of 4 hours at 37° C. under 5% CO2. Cells were treated with 20 μL of the compound to analyze (concentration of 2× diluted in DMEM without FBS containing a maximum of 1% DMSO) and incubated over-night (18 hours, 37° C. and 5% CO2). Each compound has been tested at 6 different concentrations to depict a dose-effect allowing the measure of biochemical parameters such as EC50 and TOP activation (%).
Cells were incubated 30 minutes with 40 μL/well of Steady Glow (Promega) and luminescence was read with TECAN Genios Pro (100 ms/w). Four experiments were carried out for each compound.
Each compound has been tested at 6 different concentrations to depict a dose-effect allowing the measure of biochemical parameters such as EC50 and TOP activation (%).
The mammalian two-hybrid system (M2H) assay consists herein in studying the ability of compounds according to the invention to activate Rev-Erbalpha in cells and thus modulate the interaction with its corepressor. The interaction of the two proteins is assessed with the help of the Luciferase reporter gene. HEK293 cells were transfected with two gene constructions: Gal4-RE VP16-NCoR and Gal4-Rev-Erbalpha or with Gal4-RE, sVP16-NCoR and Gal4-Rev-Erb beta.
The ability of compounds according to the invention of activating Rev-Erbalpha alpha or Rev-Erb beta was assessed in the described cell-based assay. EC50 and TOP activation (%) were measured.

SMILES | EC50 (Rev-Erb alpha [1]) | EC50 (Rev-Erb alpha [2]) | melting point | EC50 (Rev-Erb beta)
Clc1nnc2ccc(Oc3cccc(-c4ccccc4)c3)nn12 [Cpd.3-1, 6-(biphenyl-3-yloxy)-3-chloro-[1,2,4]triazolo[4,3-b]pyridazine] | 100 to 1000 nM | 100 to 1000 nM |  | 
O=C(c1ccccc1)c1cccc(Oc2ccc3nnc(Cl)n3n2)c1 [Cpd.3-2, (3-(3-chloro-[1,2,4]triazolo[4,3-b]pyridazin-6-yloxy)phenyl)(phenyl)methanone] | 100 to 1000 nM | < 100 nM | 148 °C | 
FC(F)(F)c1nnc2ccc(Oc3cccc(-c4ccccc4)c3)nn12 [Cpd.3-3, 6-(biphenyl-3-yloxy)-3-(trifluoromethyl)-[1,2,4]triazolo[4,3-b]pyridazine] | 100 to 1000 nM | 1100 to 6000 nM | 140.2 °C | 
O=C(c1ccccc1)c1cccc(Oc2ccc3nnc(C(F)(F)F)n3n2)c1 [Cpd.3-4, (3-(3-(trifluoromethyl)-[1,2,4]triazolo[4,3-b]pyridazin-6-yloxy)phenyl)(phenyl)methanone] | 100 to 1000 nM | 100 to 1000 nM | 94.4 °C | 
FC(F)(F)c1nnc2ccc(Oc3cccc(Cc4ccccc4)c3)nn12 [Cpd.3-5, 6-(3-benzylphenoxy)-3-(trifluoromethyl)-[1,2,4]triazolo[4,3-b]pyridazine] | 100 to 1000 nM | 100 to 1000 nM | 115 °C | 
Clc1nnc2ccc(Oc3ccccc3-c3ccccc3)nn12 [Cpd.4-1, 6-(biphenyl-2-yloxy)-3-chloro-[1,2,4]triazolo[4,3-b]pyridazine] | < 100 nM | 1100 to 6000 nM | 163 °C | 
Fc1cccc(-c2ccccc2Oc2ccc3nnc(Cl)n3n2)c1 [Cpd.4-3, 6-(3′-fluoro-biphenyl-2-yloxy)-3-chloro-[1,2,4]triazolo[4,3-b]pyridazine] | 100 to 1000 nM | < 100 nM | 97.3 °C | 
Clc1nnc2ccc(Oc3ccccc3Cc3ccccc3)nn12 [Cpd.4-4, 6-(2-benzylphenoxy)-3-chloro-[1,2,4]triazolo[4,3-b]pyridazine] | 100 to 1000 nM | 100 to 1000 nM | 113.7 °C | 
FC(F)(F)c1nnc2ccc(Oc3ccccc3Cc3ccccc3)nn12 [Cpd.4-5, 6-(2-benzylphenoxy)-3-(trifluoromethyl)-[1,2,4]triazolo[4,3-b]pyridazine] | 1000 to 6000 nM | 100 to 1000 nM | 128.8 °C | 
COc1ccc(-c2ccccc2)c(Oc2ccc3nnc(Cl)n3n2)c1 [Cpd.4-6, 6-(4-methoxy-biphenyl-2-yloxy)-3-chloro-[1,2,4]triazolo[4,3-b]pyridazine] | 100 to 1000 nM | < 100 nM | 128.1 °C | 
Fc1ccc(-c2ccccc2)c(Oc2ccc3nnc(Cl)n3n2)c1 [Cpd.4-7, 6-(4-fluoro-biphenyl-2-yloxy)-3-chloro-[1,2,4]triazolo[4,3-b]pyridazine] | 100 to 1000 nM | < 100 nM | 180.7 °C | 

The next lines start with the values.

EC50 (Rev-Erb alpha [1]) | EC50 (Rev-Erb alpha [2]) | melting point | EC50 (Rev-Erb beta) | SMILES
1000 to 6000 nM | 100 to 1000 nM | 112.1 °C |  | O=C(c1ccccc1)c1ccccc1Oc1ccc2nnc(C(F)(F)F)n2n1 [Cpd.4-8, (2-(3-(trifluoromethyl)-[1,2,4]triazolo[4,3-b]pyridazin-6-yloxy)phenyl)(phenyl)methanone]
1000 to 6000 nM | 100 to 1000 nM |  |  | Clc1nnc2ccc(Cc3ccccc3-c3ccccc3)nn12 [Cpd.4-9, 6-(biphenyl-2-ylmethyl)-3-chloro-[1,2,4]triazolo[4,3-b]pyridazine]
100 to 1000 nM | < 100 nM | 144.4 °C |  | Fc1ccc(-c2ccccc2Oc2ccc3nnc(Cl)n3n2)cc1 [Cpd.4-10, 6-(4′-fluoro-biphenyl-2-yloxy)-3-chloro-[1,2,4]triazolo[4,3-b]pyridazine]
1000 to 6000 nM | 1100 to 6000 nM | 137.9 °C |  | O=C(c1ccccc1)c1ccccc1Oc1ccc2nnc(Cl)n2n1 [Cpd.4-11, (2-(3-chloro-[1,2,4]triazolo[4,3-b]pyridazin-6-yloxy)phenyl)(phenyl)methanone]
1000 to 6000 nM | 1100 to 6000 nM | 117.4 °C |  | FC(F)(F)c1nnc2ccc(Cc3ccccc3-c3ccccc3)nn12 [Cpd.4-12, 6-(biphenyl-2-ylmethyl)-3-(trifluoromethyl)-[1,2,4]triazolo[4,3-b]pyridazine]
< 100 nM |  | 147.5 °C | 100 to 1000 nM | Cc1cc(Oc2ccc3nnc(Cl)n3n2)c(-c2ccccc2)cc1C [Cpd.4-18, 6-(4,5-dimethyl-biphenyl-2-yloxy)-3-chloro-[1,2,4]triazolo[4,3-b]pyridazine]
< 100 nM |  |  | 100 to 1000 nM | CN(C)c1ccc(-c2ccccc2)c(Oc2ccc3nnc(Cl)n3n2)c1 [Cpd.4-45, 3-chloro-6-(4-N,N-dimethylamino-biphenyl-2-yloxy)-[1,2,4]triazolo[4,3-b]pyridazine]
